Drawing on patent US7728000B2, “Substituted quinolines for the treatment of cancer” (Crystax Pharmaceuticals, priority 2003, dated 2010), this text covers melting point and IC50 for five compounds.

The test system of one series is Jurkat clon E6-1. Put plainly: In vitro cytotoxicity, colorimetric MTT assay on Jurkat clon E6-1. The series is classed as cell-based. As to conditions: human leukemia cell line, concentrations up to 100 mikroM, incubation until 72 h, read-out: IC50 (_M) Jurkat clon E6-1. The method, then: (§1) The in vitro cytotoxicity of the compounds of the present invention was evaluated by colorimetric assays with tetrazol salts (MTT) on Jurkat clon E6-1 and on GLC-4, human leukemia and carcinoma cell lines, respectively. This assay is based on the capacity of live cells to incorporate and reduce the MTT, […], only active in live cells. The intensity of observed colour is directly correlated with the quantity of live cells in the sample as it is described by Mosmann et al., J. Immunol. Methods 1983, vol. 65, p. 55. In all cases the concentrations used were up to 100 mikroM and times of incubation until 72 h.
In general terms: Formazan colour is commonly taken as a measure of viable cells.

The next series concerns GLC-4. Put plainly: In vitro cytotoxicity, colorimetric MTT assay on GLC-4. The series is classed as cell-based. As to conditions: GLC4, human carcinoma cell line, concentrations up to 100 mikroM, incubation until 72 h, read-out: IC50 (_M)GLC-4. How it is done:
as §1

Broadly, the melting point is the temperature of the solid-liquid transition. What is called IC50 is the concentration at which inhibition is half-maximal. Consider `CN(CCCNC(=O)c1c2ccccc2nc2ccccc12)CCCNC(=O)c1c2ccccc2nc2c1[nH]c1ccccc12` [Ia, N-[3-[[3-[(9-acridinecarbonyl)amino]propyl]methylamino]propyl]-10H-indolo[3,2-b]quinoline-11-carboxamide], for which the melting point was 108 to 110 °C. In addition, the half-inhibitory concentration (IC50) in the series with Jurkat clon E6-1 amounted to 1.42 µM. For the same compound, the IC50 with GLC-4 was 1.63 µM.

As for `CN(C)CCNc1c2nc3ccccc3c-2n(C)c2ccccc12` [Ip, N,N-dimethyl-N′-(5-methyl-5H-indolo[3,2-b]quinolin-11-yl)-ethane-1,2-diamine], the IC50 is 0.26 µM in the series with Jurkat clon E6-1 and 0.67 µM in the series on GLC-4.

With `CN(C)CCNC(=O)c1c2ccccc2nc2c1[nH]c1ccccc12` [Iu, 10H-indolo[3,2-b]quinoline-11-carboxylic acid (2-dimethylamino-ethyl)amide], the values for the IC50 with Jurkat clon E6-1 and in the series on GLC-4 were 18.7 µM and 15.7 µM, respectively.

As to `CC(CNC(=O)c1c2ccccc2nc2c1[nH]c1ccccc12)N(C)C` (stereo not shown) [Iv, 10H-Indolo[3,2-b]quinoline-11-carboxylic acid (2-dimethylamino-propyl)amide], the melting point lay within 188 to 189 °C. The IC50 with GLC-4 worked out at 16.7 µM.

With `CC(CN(C)C)Nc1c2nc3ccccc3c-2n(C)c2ccccc12` (stereo not shown) [Iw, N,N-dimethyl-N′-(5-methyl-5H-indolo[3,2-b]quinolin-11-yl)-propane-1,2-diamine], the IC50 in the series on GLC-4 was found to be 1.08 µM.
